Results: ChEMBL document CHEMBL3872249, “Computer design, synthesis, and bioactivity analyses of drugs like fingolimod used in the treatment of multiple sclerosis” (Bioorg Med Chem, 2017)
Activity calls are given as the source filed them. No cut-off for these calls is given here.

How the values were obtained:
SK-N-SH [1] = test: Effect on S1PR1 mRNA expression in human SK-N-SH cells at EC10 by qPCR method relative to beta-actin; assay type: functional
SH-SY5Y [2] = test: Effect on IL6 mRNA expression in human SH-SY5Y cells at EC10 by qPCR method relative to beta-actin; assay type: functional
SK-N-SH [3] = test: Effect on EPHA1 mRNA expression in human SK-N-SH cells at EC10 by qPCR method relative to beta-actin; assay type: functional
SK-N-SH [4] = test: Effect on PMP22 mRNA expression in human SK-N-SH cells at EC10 by qPCR method relative to beta-actin; assay type: functional
SH-SY5Y [5] = test: Effect on TNF mRNA expression in human SH-SY5Y cells at EC10 by qPCR method relative to beta-actin; assay type: functional
SH-SY5Y [6] = test: Effect on VCAM1 mRNA expression in human SH-SY5Y cells at EC10 by qPCR method relative to beta-actin; assay type: functional
SK-N-SH [7] = test: Effect on CXCL10 mRNA expression in human SK-N-SH cells at EC10 by qPCR method relative to beta-actin; assay type: functional
SK-N-SH [8] = test: Effect on IL6 mRNA expression in human SK-N-SH cells at EC10 by qPCR method relative to beta-actin; assay type: functional
SK-N-SH [9] = test: Effect on DRD2 mRNA expression in human SK-N-SH cells at EC10 by qPCR method relative to beta-actin; assay type: functional
[10] = Cytotoxicity against human U118MG cells measured after 24 hrs by crystal-violet staining based assay; assay type: toxicity, cell-based; details: u-118-mg
U-118-MG [11] = test: Effect on NFKB1 mRNA expression in human U118MG cells at EC10 by qPCR method relative to beta-actin; assay type: functional
SH-SY5Y [12] = test: Effect on TNFRSF1A mRNA expression in human SH-SY5Y cells at EC10 by qPCR method relative to beta-actin; assay type: functional
U-118-MG [13] = test: Effect on TNF mRNA expression in human U118MG cells at EC10 by qPCR method relative to beta-actin; assay type: functional
U-118-MG [14] = test: Effect on S1PR1 mRNA expression in human U118MG cells at EC10 by qPCR method relative to beta-actin; assay type: functional
SK-N-SH [15] = test: Effect on IL10 mRNA expression in human SK-N-SH cells at EC10 by qPCR method relative to beta-actin; assay type: functional
[16] = Cytotoxicity against human SK-N-SH cells measured after 24 hrs by crystal-violet staining based assay; assay type: toxicity, cell-based
[17] = biological target: Sphingosine 1-phosphate receptor 1 (Homo sapiens) (UniProt P21453); test: Agonist activity at sphingosine-1-phosphate receptor (unknown origin) expressed in HEK293 cells assessed as increase in cAMP level at EC10 after 18 hrs by CRE-responsive renilla luciferase reporter gene assay; assay type: functional, cell-based
SH-SY5Y [18] = test: Effect on ADORA2A mRNA expression in human SH-SY5Y cells at EC10 by qPCR method relative to beta-actin; assay type: functional
U-118-MG [19] = test: Effect on ADCY5 mRNA expression in human U118MG cells at EC10 by qPCR method relative to beta-actin; assay type: functional
U-118-MG [20] = test: Effect on ICAM1 mRNA expression in human U118MG cells at EC10 by qPCR method relative to beta-actin; assay type: functional
U-118-MG [21] = test: Effect on VCAM1 mRNA expression in human U118MG cells at EC10 by qPCR method relative to beta-actin; assay type: functional
SK-N-SH [22] = test: Effect on TNFRSF1A mRNA expression in human SK-N-SH cells at EC10 by qPCR method relative to beta-actin; assay type: functional
SK-N-SH [23] = test: Effect on CCL2 mRNA expression in human SK-N-SH cells at EC10 by qPCR method relative to beta-actin; assay type: functional
SK-N-SH [24] = test: Effect on ADORA2A mRNA expression in human SK-N-SH cells at EC10 by qPCR method relative to beta-actin; assay type: functional
U-118-MG [25] = test: Effect on MMP9 mRNA expression in human U118MG cells at EC10 by qPCR method relative to beta-actin; assay type: functional
SK-N-SH [26] = test: Effect on TNF mRNA expression in human SK-N-SH cells at EC10 by qPCR method relative to beta-actin; assay type: functional
U-118-MG [27] = test: Effect on PMP22 mRNA expression in human U118MG cells at EC10 by qPCR method relative to beta-actin; assay type: functional
SH-SY5Y [28] = test: Effect on CCL2 mRNA expression in human SH-SY5Y cells at EC10 by qPCR method relative to beta-actin; assay type: functional
SH-SY5Y [29] = test: Effect on GNAS mRNA expression in human SH-SY5Y cells at EC10 by qPCR method relative to beta-actin; assay type: functional
SH-SY5Y [30] = test: Effect on DRD2 mRNA expression in human SH-SY5Y cells at EC10 by qPCR method relative to beta-actin; assay type: functional
SH-SY5Y [31] = test: Effect on CXCL10 mRNA expression in human SH-SY5Y cells at EC10 by qPCR method relative to beta-actin; assay type: functional
SH-SY5Y [32] = test: Effect on S1PR1 mRNA expression in human SH-SY5Y cells at EC10 by qPCR method relative to beta-actin; assay type: functional
SH-SY5Y [33] = test: Effect on NFKB1 mRNA expression in human SH-SY5Y cells at EC10 by qPCR method relative to beta-actin; assay type: functional
U-118-MG [34] = test: Effect on ADORA2A mRNA expression in human U118MG cells at EC10 by qPCR method relative to beta-actin; assay type: functional
SH-SY5Y [35] = test: Effect on IL10 mRNA expression in human SH-SY5Y cells at EC10 by qPCR method relative to beta-actin; assay type: functional
[36] = biological target: Sphingosine 1-phosphate receptor 1 (Homo sapiens) (UniProt P21453); test: Agonist activity at sphingosine-1-phosphate receptor in human U118MG cells assessed as increase in cAMP level at EC10 by direct immunoassay; assay type: functional, cell-based; details: U-118-MG
SH-SY5Y [37] = test: Effect on PMP22 mRNA expression in human SH-SY5Y cells at EC10 by qPCR method relative to beta-actin; assay type: functional
SK-N-SH [38] = test: Effect on GNAS mRNA expression in human SK-N-SH cells at EC10 by qPCR method relative to beta-actin; assay type: functional
U-118-MG [39] = test: Effect on IL10 mRNA expression in human U118MG cells at EC10 by qPCR method relative to beta-actin; assay type: functional
SH-SY5Y [40] = test: Effect on MMP9 mRNA expression in human SH-SY5Y cells at EC10 by qPCR method relative to beta-actin; assay type: functional
[41] = biological target: Sphingosine 1-phosphate receptor 1 (Homo sapiens) (UniProt P21453); test: Agonist activity at sphingosine-1-phosphate receptor human SK-N-SH cells assessed as increase in cAMP level at EC10 by direct immunoassay; assay type: functional, cell-based
U-118-MG [42] = test: Effect on IL6 mRNA expression in human U118MG cells at EC10 by qPCR method relative to beta-actin; assay type: functional
SH-SY5Y [43] = test: Effect on ADCY5 mRNA expression in human SH-SY5Y cells at EC10 by qPCR method relative to beta-actin; assay type: functional
[44] = Cytotoxicity against human SH-SY5Y cells measured after 24 hrs by crystal-violet staining based assay; assay type: toxicity, cell-based

Sequence of Sphingosine 1-phosphate receptor 1 (Homo sapiens) (P21453 whole entry): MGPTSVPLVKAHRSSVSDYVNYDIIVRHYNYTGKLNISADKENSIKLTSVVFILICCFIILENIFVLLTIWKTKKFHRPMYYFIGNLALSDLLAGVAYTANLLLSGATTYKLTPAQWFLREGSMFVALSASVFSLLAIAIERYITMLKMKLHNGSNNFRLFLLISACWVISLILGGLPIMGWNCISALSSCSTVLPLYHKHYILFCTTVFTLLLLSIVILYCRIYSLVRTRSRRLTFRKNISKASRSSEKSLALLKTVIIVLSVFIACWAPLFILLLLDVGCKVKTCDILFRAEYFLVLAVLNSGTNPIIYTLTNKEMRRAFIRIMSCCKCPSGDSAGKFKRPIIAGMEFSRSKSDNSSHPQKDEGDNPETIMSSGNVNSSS

- Activity [17]: Active
- Activity [36]: Active
- Activity [41]: Active
SMILES: CCCCCCCCn1nnnc1CCC(N)(CO)CO.Cl
- fold change (FC) (SK-N-SH [1]): -4.3001
- fold change (FC) (SH-SY5Y [2]): -4.4551
- fold change (FC) (SK-N-SH [3]): -7.9001
- fold change (FC) (SK-N-SH [4]): -4.1464
- fold change (FC) (SH-SY5Y [5]): -3.2642
- fold change (FC) (SH-SY5Y [6]): -5.2706
- fold change (FC) (SK-N-SH [7]): -4.7219
- fold change (FC) (SK-N-SH [8]): -11.9743
- fold change (FC) (SK-N-SH [9]): -3.8822
- EC10 [10]: 0.54 µM
- fold change (FC) (U-118-MG [11]): -2.6004
- fold change (FC) (SH-SY5Y [12]): -6.2787
- fold change (FC) (U-118-MG [13]): -5.8487
- fold change (FC) (U-118-MG [14]): -4.1312
- fold change (FC) (SK-N-SH [15]): -7.7375
- EC10 [16]: 0.37 µM
- fold change (FC) (SH-SY5Y [18]): -6.5966
- fold change (FC) (U-118-MG [19]): -5.787
- fold change (FC) (U-118-MG [20]): -5.127
- fold change (FC) (U-118-MG [21]): -3.8654
- fold change (FC) (SK-N-SH [22]): -3.6537
- fold change (FC) (SK-N-SH [23]): -8.981
- fold change (FC) (SK-N-SH [24]): -5.915
- fold change (FC) (U-118-MG [25]): -4.4691
- fold change (FC) (SK-N-SH [26]): -7.8456
- fold change (FC) (U-118-MG [27]): -5.1248
- fold change (FC) (SH-SY5Y [28]): -3.0787
- fold change (FC) (SH-SY5Y [29]): -8.1531
- fold change (FC) (SH-SY5Y [30]): -3.3881
- fold change (FC) (SH-SY5Y [31]): -3.4279
- fold change (FC) (SH-SY5Y [32]): -4.2848
- fold change (FC) (SH-SY5Y [33]): -3.8433
- fold change (FC) (U-118-MG [34]): -5.0641
- fold change (FC) (SH-SY5Y [35]): -7.3448
- fold change (FC) (SH-SY5Y [37]): -3.5921
- fold change (FC) (SK-N-SH [38]): -7.631
- fold change (FC) (U-118-MG [39]): -2.5669
- fold change (FC) (SH-SY5Y [40]): -5.7901
- fold change (FC) (U-118-MG [42]): -4.7651
- fold change (FC) (SH-SY5Y [43]): -5.9067
- EC10 [44]: 0.45 µM
